Article PMC11547375, “Peptide Dimerization as a Strategy for the Development of Antileishmanial Compounds” (Molecules, 2024)
Where two headings read alike, the source gives them in different places. Positions of bridges follow the written chain, without caps; N, C: chain ends. Residues, ends and D or L forms follow the SMILES beside them. Chains are numbered I, II in the order given. No end group written: not given here.

Assays:
LmCPB2.8ΔCTE (CPB) = LmCPB2.8ΔCTE (CPB) (Leishmania mexicana, UniProt P36400); details: cited from earlier work
Text: (§1) In addition to the membrane, peptides may have other therapeutic targets in Leishmania. Enzymes are essential for functional integrity and virulence, highlighting the fundamental role of cysteine proteases in the infectious process, so their inhibition can have high therapeutic potential, enabling the design of new drugs. In L. mexicana, three cysteine protease genes were identified as virulence factors: lmcpa, lmcpb, and lmcpc. Of these, lmcpb encodes a protein product like cathepsin L and is the most abundant in the amastigote form of the parasite, so this enzyme is an i ...

[1] = Carboxyfluorescein leakage from POPC-Chol (4:1) vesicles mimicking host membrane; details: POPC–Chol (4:1) LUVs, peptide tested at 1 and 5 µmol L^−1
Procedure: Large unilamellar vesicles (LUVs) composed of POPC (1-palmitoyl-2-oleoyl-sn-glycero-3-phosphatidylcholine) and cholesterol (Chol) (4:1), or POPC, POPS (1-palmitoyl-2-oleoyl-sn-glycero-3-serine), and ergosterol (Erg) (16:3:1) were prepared according to the methods described by Lorenzón et al. [34]. […] We employed a Hitachi U-2000 spectrophotometer (TSHa) (Hitachi, Tokyo, Japan) or a Fluorolog-3 FL3-122 spectrofluorometer (Horiba Jobin Yvon, Glasgow, UK) ((TSHa)2K) for analyses.

[2] = POPC–POPS–Erg (16:3:1) LUVs
Procedure: To evaluate the effect of monomeric and dimeric peptides on the lipid membrane and relate it to the mechanism of action, vesicle permeabilization studies were carried out for evaluating the possible mechanisms on membrane. The leakage assays were carried out with carboxyfluorescein (CF) internalized in the mimetic membranes. The vesicles of POPC–Chol (4:1) and POPC–POPS (phosphatidylserine)–ergosterol (16:3:1) were employed. These mimetic membranes were designed considering the compositions of phospholipids and steroids in the host membrane and in the Leishmania membrane, respectively. The constitution of the cell membrane of Leishmania varies according to the morphology of the parasite and its stage of development, but is more negative than the cell membranes of mammals, which allow for cationic AMPs to bind more easily. Our studies were based on the membrane of the promastigote form, which is characterized by the presence of mainly phosphatidylcholine, phosphatidylethanolamine, phosphatidylinositol, phosphatidylserine, and ergosterol, in addition to diglycerides and glycolipids containing mannose and galactose. In the amastigote form of Leishmania, there is a higher concentration of fatty acids and cholesterol, while triglycerides and ergosterol decrease during the transition from promastigotes to amastigotes. In addition, the main phospholipids found are sphingomyelin and phosphatidylserine, with lower proportions of phosphatidylinositol and lysophosphatidylethanolamine.
Large unilamellar vesicles (LUVs) composed of POPC (1-palmitoyl-2-oleoyl-sn-glycero-3-phosphatidylcholine) and cholesterol (Chol) (4:1), or POPC, POPS (1-palmitoyl-2-oleoyl-sn-glycero-3-serine), and ergosterol (Erg) (16:3:1) were prepared according to the methods described by Lorenzón et al.. […] We employed a Hitachi U-2000 spectrophotometer (TSHa) (Hitachi, Tokyo, Japan) or a Fluorolog-3 FL3-122 spectrofluorometer (Horiba Jobin Yvon, Glasgow, UK) ((TSHa)2K) for analyses.

[3] = tested on: L. mexicana promastigotes; assay: Membrane damage by flow cytometry with propidium iodide; format: cell-based, Leishmania mexicana; details: 1 × IC50; promastigotes 5 × 10^6 cells mL^−1, PI 80 µg mL^−1 20 min; given in Figure 11
Procedure: The mechanism of action of the peptides on the membrane was also evaluated by flow cytometry using propidium iodide. Flow cytometry has been considered more reliable for studies of cell susceptibility because it provides intrinsic information about cells, such as size and complexity. The use of fluorochromes allows for the evaluation of a wide range of physiological or morphological parameters, such as membrane integrity, pH, membrane potential, and viability. The results presented here (Figure 11) are expressed as the fluorescence intensity of the PI-labeled L. mexicana cells, considering that the damage caused to the parasite membrane facilitated the entry of PI into the cell nucleus.
For flow cytometry assays, the promastigotes of L. mexicana were grown in Schneider medium (Sigma) supplemented with inactivated fetal bovine serum. […] After incubation, the promastigotes were washed twice with PBS and labeled with propidium iodide (PI) (80 μg mL^−1) for 20 min, followed by centrifugation at 2000× g for 10 min and resuspension in 500 μL of PBS. The samples were analyzed using an Accuri C6 flow cytometer (BD Biosciences, Franklin Lakes, NJ, USA) and proprietary software, with at least 50,000 events effectively included in each analysis. All the experiments were performed using biological duplicates in triplicate at each experimental point.

[4] = tested on: L. mexicana intracellular amastigotes; assay: Infection index, L. mexicana intracellular amastigotes in macrophages; format: cell-based, Leishmania mexicana; details: 24 h of treatment
Procedure: During the infection process, the amastigotes replicated in macrophages are transmitted to healthy cells, leading to the amplification of infection; the greater the parasitic load is, the worse the infection is. The infection index (percentage of infected cells x number of parasites per infected cell) was used to evaluate this transmission. In this work, the infection index was determined using L. mexicana for 24 h (Figure 6) and 48 h of treatment (Figure 7).
The L. amazonensis promastigotes (MPRO/BR/1972/M1841-LV-79) were grown in LIT culture medium, while the L. mexicana promastigotes (MNYC/BZ/62/M379) were cultivated in Schneider’s medium (Sigma-Aldrich, St. Louis, MO, USA), supplemented with 10% heat-inactivated fetal bovine serum (FBS; Gibco/Invitrogen, Waltham, MA, USA) at 28 °C until reaching the mid-log phase of growth. Macrophages were sourced from the peritoneal cavity of Swiss mice using the methodology outlined by de Almeida et al.. Anti-promastigote and anti-amastigote assays of L. mexicana and L. amazonensis and their cytotoxic activity were conducted as previously described. IC50 is the concentration capable of killing 50% of the parasites. […] Cytotoxicity for the host cells and the protozoan species was compared and expressed as the selectivity index (SI), calculated as the ratio of the CC50 for macrophages to the IC50 for the protozoan species.

[5] = tested on: L. amazonensis intracellular amastigotes; assay: Infection index, L. amazonensis intracellular amastigotes in macrophages; format: cell-based, Leishmania amazonensis; details: 24 h of treatment
[6] = tested on: L. mexicana promastigotes; assay: Membrane damage by fluorescence microscopy (PI/Hoechst); format: cell-based, Leishmania mexicana; details: 1.25 and 2.5 µmol L^−1, 24 h; ratio PI-labeled / Hoechst-labeled parasites
Procedure: Fluorescence microscopy assays were also employed to investigate the mechanism of action of the peptides. […] In addition, the ratio of PI-labeled cells to Hoechst-labeled cells was used to determine the percentage of cells that had suffered some type of membrane damage. Images were also obtained after the treatments of the promastigote form with the TSHa peptide, the dimeric (TSHa)2K peptide, and the Amp B control drug at concentrations of 2.5 and 1.25 µmol L^−1 after 2 and 24 h to evaluate the mechanism of action of these molecules and whether the time of exposure to the compounds might affect their activity. […] The results for the other treatments are provided in the Supplementary Materials (Figures S1–S10).
For fluorescence microscopy, assays were carried out with promastigotes of L. mexicana in the exponential phase of growth in passage P3 at a concentration of 1 × 10^7 cells mL^−1. Treatments were performed with Amp B and the peptides at concentrations of 1.25 or 2.5 μmol L^−1 for 2 or 24 h, respectively. The parasites were labeled with 5 μg mL^−1 of Hoechst solution (stock: 1 mg mL^−1) for 5 min, followed by the addition of PI (1 mg mL^−1) to a final concentration of 40 μg mL^−1 and incubation for 20 min at room temperature. […] Images were acquired with a fluorescence microscope (Nikon DS-R11,10 Nikon Instruments Inc., Melville, NY, USA) at 40× magnification. […]

[7] = tested on: L. mexicana promastigotes; assay: microbe, parasite or virus in culture; format: cell-based, Leishmania mexicana; details: Leishmania mexicana, ± standard deviation, SD, read-out: IC50 Promastigote
Procedure: (§2) The L. amazonensis promastigotes (MPRO/BR/1972/M1841-LV-79) were grown in LIT culture medium, while the L. mexicana promastigotes (MNYC/BZ/62/M379) were cultivated in Schneider’s medium (Sigma-Aldrich, St. Louis, MO, USA), supplemented with 10% heat-inactivated fetal bovine serum (FBS; Gibco/Invitrogen, Waltham, MA, USA) at 28 °C until reaching the mid-log phase of growth. Macrophages were sourced from the peritoneal cavity of Swiss mice using the methodology outlined by de Almeida et al.. Anti-promastigote and anti-amastigote assays of L. mexicana and L. amazonensis and their cytotoxic activity were conducted as previously described. IC50 is the concentration capable of killing 50% of the parasites. The drug concentration that inhibited 50% of cell growth was denoted as the 50% cytotoxic concentration (CC50). Cytotoxicity for the host cells and the protozoan species was compared and expressed as the selectivity index (SI), calculated as the ratio of the CC50 for macrophages to the IC50 for the protozoan species.

L. mexicana amastigotes = assay: microbe, parasite or virus in culture; format: cell-based, Leishmania mexicana; details: Leishmania mexicana, ± standard deviation, SD
Procedure: (§3) Macrophages were sourced from the peritoneal cavity of Swiss mice using the methodology outlined by de Almeida et al.. Anti-promastigote and anti-amastigote assays of L. mexicana and L. amazonensis and their cytotoxic activity were conducted as previously described. […] Cytotoxicity for the host cells and the protozoan species was compared and expressed as the selectivity index (SI), calculated as the ratio of the CC50 for macrophages to the IC50 for the protozoan species.

peritoneal macrophages = assay: Cytotoxicity in peritoneal macrophages; format: cell-based; details: peritoneal macrophages of Swiss mice
Procedure: as §2

[8] = tested on: L. amazonensis promastigotes; assay: microbe, parasite or virus in culture; format: cell-based, Leishmania amazonensis; details: Leishmania amazonensis, read-out: IC50 Promastigote
Procedure: as §2

[9] = tested on: L. amazonensis amastigotes; assay: microbe, parasite or virus in culture; format: cell-based, Leishmania amazonensis; details: Leishmania amazonensis, read-out: IC50 Amastigote
Procedure: as §3

cathepsin B = details: cited from earlier work
Text: as §1

[10] = target: LmCPB2.8ΔCTE (CPB), cysteine protease of Leishmania mexicana (L. mexicana) (UniProt P36400)

**Q.** With `CC(C)C[C@H](NC(=O)[C@H]1O[C@@H]1C(=O)O)C(=O)NCCCCN=C(N)N` (relative stereo) [Peptide E64, L-trans-epoxysuccinyl-leucylamido-(4-guanidino)butane] as the molecule, how does the “inhibition of Leishmania CPB, in words” value (LmCPB2.8ΔCTE (CPB)) read?
**A.** in the nanomolar range is a potent irreversible inhibitor

**Q.** Which “permeabilization of POPC–Chol vesicles, in words” value [1] does the source give for `CC[C@H](C)[C@H](NC(=O)CNC(=O)[C@H](CO)NC(=O)[C@H](CC(C)C)NC(=O)[C@@H](N)Cc1ccccc1)C(=O)N[C@H](C(=O)NCC(=O)N[C@@H](CCSC)C(=O)N[C@@H](CC(C)C)C(=O)NCC(=O)N[C@@H](CCCCN)C(=O)N[C@@H](CC(C)C)C(=O)N[C@@H](Cc1ccccc1)C(=O)NCCCC[C@H](NC(=O)[C@H](Cc1ccccc1)NC(=O)[C@H](CC(C)C)NC(=O)[C@H](CCCCN)NC(=O)CNC(=O)[C@H](CC(C)C)NC(=O)[C@H](CCSC)NC(=O)CNC(=O)[C@@H](NC(=O)[C@@H](NC(=O)CNC(=O)[C@H](CO)NC(=O)[C@H](CC(C)C)NC(=O)[C@@H](N)Cc1ccccc1)[C@@H](C)CC)C(C)C)C(N)=O)C(C)C` [(TSHa)2K] (I: H-FLSGIVGMLGKLFK-NH2 / II: H-FLSGIVGMLGKLF; amide I:14-II:C; N-terminus assumed) here?
**A.** No permeabilization

**Q.** What about the CF release ([2]; peptide 1 µmol L^−1, fluorescence) of the same molecule?
**A.** 20%

**Q.** And the CF release ([2]; peptide 5 µmol L^−1, fluorescence)?
**A.** 45%

**Q.** And the “V1-L gate (cells not labeled with PI)” value [3]?
**A.** 52.8%

**Q.** What about the “V1-R gate (PI-labeled cells)” value [3] of the same molecule?
**A.** 47.2%

**Q.** What about the “decrease of infection rate (infection index) vs untreated infected cells” value [4] of the same molecule?
**A.** 5.5 fold

**Q.** And the “decrease of infection rate (infection index) vs untreated infected cells” value [5]?
**A.** 3.8 fold

**Q.** And the “membrane damage, in words” value [6]?
**A.** caused damage to the membrane

**Q.** Which IC50 [7] does the source give for `C[C@@H]1[C@H](O)[C@@H](C)/C=C/C=C/C=C/C=C/C=C/C=C/C=C/[C@H](O[C@@H]2O[C@H](C)[C@@H](O)[C@H](N)[C@@H]2O)C[C@@H]2O[C@](O)(C[C@@H](O)C[C@@H](O)[C@H](O)CC[C@@H](O)C[C@@H](O)CC(=O)O[C@H]1C)C[C@H](O)[C@H]2C(=O)O` [Amp B, Amphotericin B] here?
**A.** 500 ± 200 nM

**Q.** And the IC50 (L. mexicana amastigotes; 24 h of treatment, read-out: IC50 Amastigote 24 h of Treatment)?
**A.** 630 ± 1200 nM

**Q.** What about the IC50 (L. mexicana amastigotes; 48 h of treatment, read-out: IC50 Amastigote 48 h of Treatment) of the same molecule?
**A.** 630 ± 1200 nM

**Q.** And the “CC50 Peritoneal Macrophages” value (peritoneal macrophages; Table 1, ± standard deviation, SD)?
**A.** 24000 ± 20 nM

**Q.** What about the “CC50 Peritoneal Macrophage” value (peritoneal macrophages; Table 2) of the same molecule?
**A.** 24000 ± 400 nM

**Q.** And the IC50 [8]?
**A.** 700 ± 200 nM

**Q.** What about the IC50 [9] of the same molecule?
**A.** 630 ± 20 nM

**Q.** What about the “V1-L gate (cells not labeled with PI)” value [3] of the same molecule?
**A.** 55.2%

**Q.** What about the “V1-R gate (PI-labeled cells)” value [3] of the same molecule?
**A.** 44.8%

**Q.** What about the “membrane damage, in words” value [6] of the same molecule?
**A.** caused damage to the membrane

**Q.** With `Cc1ccc(C(=O)[C@@]23C(=O)OC(=O)C2N(C)[C@]2(c4ccccc4)Sc4ccccc4[C@H]32)cc1` (stereo partly drawn) [derivative of benzo[b]thiophene, (4aS,9bS,9cS)-4-methyl-9c-(4-methylbenzoyl)-4a-phenyl-4,4a,9b,9c-tetrahydro-1H-benzo[4,5]thieno[2,3-b]furo[3,4-d]pyrrole-1,3(3aH)-dione] as the molecule, how does the IC50 (LmCPB2.8ΔCTE (CPB); read-out: IC50-CEC, LmCPB2.8△CTE (CEC)) read?
**A.** 3700 nM

**Q.** For Z-Arg-Leu-Val-Gly-Ile-Val-O-methyl, which Ki (cathepsin B) is on record?
**A.** 0.088 nM

**Q.** For dimeric peptide (TSHa)2K, which IC50 of inhibition of the enzyme activity of CPB (LmCPB2.8ΔCTE) [10] is on record?
**A.** 3600 nM

**Q.** What about the Inhibitory Activity at 20 μmol L^−1 (%): inhibition of the enzyme activity of CPB (LmCPB2.8ΔCTE) by the peptide [10] of the same molecule?
**A.** 98%

**Q.** For FLSGIVGMLGKLF-NH2 [temporin peptide TSHa], which IC50 of inhibition of the enzyme activity of CPB (LmCPB2.8ΔCTE) [10] is on record?
**A.** 9200 nM

**Q.** And the Inhibitory Activity at 20 μmol L^−1 (%): inhibition of the enzyme activity of CPB (LmCPB2.8ΔCTE) by the peptide [10]?
**A.** 94.2%
